Molecules are shown by their SMILES. Where two headings read alike, the source gives them in different places. Where only a bound is given, the exact number is not on record here.

The target of assay [1] is SREBP-2 (Homo sapiens (Human), UniProt Q12772). In words: In vitro assay SREBP-2: PathHunter U2OS SREBP-2 Nuclear Translocation Cell Line, U18666A-stimulated. It counts as cell-based.
The target of assay [2] is LXRβ (Homo sapiens (Human), UniProt P55055). In words: In vitro assay LXRβ: PathHunter NHR CHO cells, LXRβ / Steroid Receptor Co-activator Peptide enzyme fragment complementation. It counts as cell-based. In a few lines: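 Co-activator recruitment measured by chemiluminescence after signal generation. The CHO line carries full-length human LXRβ tagged with ProLink and an SRCP–enzyme acceptor fusion in the nucleus; cells sat overnight at 37° C before testing, in charcoal-dextran filtered serum medium with 1% final vehicle.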

[3] abbreviates: PathHunter U2OS SREBP-2 nuclear translocation cells, U18666A 10 μM, overnight (16 hours).
Where [4] appears, read: PathHunter NHR CHO cells, full-length human LXRβ and SRCP, chemiluminescent signal, read-out: LXRβ PPI.

Chain of LXRβ (P55055 whole entry, the tested form may be a part): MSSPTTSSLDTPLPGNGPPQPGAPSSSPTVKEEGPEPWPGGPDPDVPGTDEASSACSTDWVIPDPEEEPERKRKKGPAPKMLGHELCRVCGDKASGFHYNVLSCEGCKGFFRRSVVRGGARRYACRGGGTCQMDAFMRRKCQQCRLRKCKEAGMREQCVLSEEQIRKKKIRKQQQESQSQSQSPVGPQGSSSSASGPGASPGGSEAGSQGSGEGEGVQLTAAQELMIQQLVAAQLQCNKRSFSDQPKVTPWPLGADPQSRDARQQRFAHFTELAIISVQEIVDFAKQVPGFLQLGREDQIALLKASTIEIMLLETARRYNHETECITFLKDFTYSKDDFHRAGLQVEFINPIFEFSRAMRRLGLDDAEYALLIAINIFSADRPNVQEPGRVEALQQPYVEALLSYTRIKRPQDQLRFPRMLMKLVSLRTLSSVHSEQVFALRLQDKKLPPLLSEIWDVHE

With `COc1cncnc1N1CCN(C(=O)CC[C@@H](C)[C@H]2CC[C@H]3[C@@H]4CC=C5C[C@@H](O)CC[C@]5(C)[C@H]4CC[C@]23C)CC1` [Example 204, (4R)-4-[(1R,3aS,3bS,7S,9aR,9bS,11aR)-7-hydroxy-9a,11a-dimethyl-1H,2H,3H,3aH,3bH,4H,6H,7H,8H,9H,9aH,9bH,10H,11H,11aH-cyclopenta[a]phenanthren-1-yl]-1-[4-(5-methoxypyrimidin-4-yl)piperazin-1-yl]pentan-1-one], the IC50 in assay [1] (setting [3]) was below 250 nM. The EC50 in assay [2] (setting [4]) was above 10000 nM.

For `Cc1nccc(N2CCN(C(=O)CC[C@@H](C)[C@H]3CC[C@H]4[C@@H]5CC=C6C[C@@H](O)CC[C@]6(C)[C@H]5CC[C@]34C)CC2)n1` [Example 205, (R)-4-((3S,8S,9S,10R,13R,14S,17R)-3-hydroxy-10,13-dimethyl-2,3,4,7,8,9,10,11,12,13,14,15,16,17-tetradecahydro-1H-cyclopenta[a]phenanthren-17-yl)-1-(4-(2-methylpyrimidin-4-yl)piperazin-1-yl)pentan-1-one], in assay [1] (setting [3]), the half-maximal inhibitory concentration (IC50) is below 250 nM. Moreover, the EC50 in assay [2] (setting [4]) is above 10000 nM.

Regarding `Cc1cc(N2CCN(C(=O)CC[C@@H](C)[C@H]3CC[C@H]4[C@@H]5CC=C6C[C@@H](O)CC[C@]6(C)[C@H]5CC[C@]34C)CC2)ncn1` [Example 206, (4R)-4-[(1R,3aS,3bS,7S,9aR,9bS,11aR)-7-hydroxy-9a,11a-dimethyl-1H,2H,3H,3aH,3bH,4H,6H,7H,8H,9H,9aH,9bH,10H,11H,11aH-cyclopenta[a]phenanthren-1-yl]-1-[4-(6-methylpyrimidin-4-yl)piperazin-1-yl]pentan-1-one], the IC50 in assay [1] (setting [3]) is below 250 nM. In assay [2] (setting [4]), the EC50 is above 10000 nM.

As for `C[C@H](CCC(=O)N1CCN(C(=O)N2CCCC2)CC1)[C@H]1CC[C@H]2[C@@H]3CC=C4C[C@@H](O)CC[C@]4(C)[C@H]3CC[C@]12C` [Example 207, (R)-4-((3S,8S,9S,10R,13R,14S,17R)-3-hydroxy-10,13-dimethyl-2,3,4,7,8,9,10,11,12,13,14,15,16,17-tetradecahydro-1H-cyclopenta[a]phenanthren-17-yl)-1-(4-(pyrrolidine-1-carbonyl)piperazin-1-yl) pentan-1-one], in assay [1] (setting [3]), the IC50 was below 250 nM. The EC50 in assay [2] (setting [4]) is above 10000 nM.

In assay [1] (setting [3]), `C[C@H](CCC(=O)N1CCN(C(=O)N2CCC2)CC1)[C@H]1CC[C@H]2[C@@H]3CC=C4C[C@@H](O)CC[C@]4(C)[C@H]3CC[C@]12C` [Example 208, (R)-1-(4-(azetidine-1-carbonyl)piperazin-1-yl)-4-((3S,8S,9S,10R,13R,14S,17R)-3-hydroxy-10,13-dimethyl-2,3,4,7,8,9,10,11,12,13,14,15,16,17-tetradecahydro-1H-cyclopenta[a]phenanthren-17-yl)pentan-1-one] registered an IC50 below 250 nM. Further, the EC50 in assay [2] (setting [4]) was above 10000 nM.

Turning to `COCCN(C)C(=O)N1CCN(C(=O)CC[C@@H](C)[C@H]2CC[C@H]3[C@@H]4CC=C5C[C@@H](O)CC[C@]5(C)[C@H]4CC[C@]23C)CC1` [Example 209, 4-((R)-4-((3S,8S,9S,10R,13R,14S,17R)-3-hydroxy-10,13-dimethyl-2,3,4,7,8,9,10,11,12,13,14,15,16,17-tetradecahydro-1H-cyclopenta[a]phenanthren-17-yl)pentanoyl)-N-(2-methoxyethyl)-N-methylpiperazine-1-carboxamide], the IC50 in assay [1] was below 250 nM. For the same compound, in assay [2] (setting [4]), the EC50 is above 10000 nM.

Take `C[C@H](CCC(=O)N1CCN(C(=O)N(C)CC2CC2)CC1)[C@H]1CC[C@H]2[C@@H]3CC=C4C[C@@H](O)CC[C@]4(C)[C@H]3CC[C@]12C` [Example 210, N-(cyclopropylmethyl)-4-((R)-4-((3S,8S,9S,10R,13R,14S,17R)-3-hydroxy-10,13-dimethyl-2,3,4,7,8,9,10,11,12,13,14,15,16,17-tetradecahydro-1H-cyclopenta[a]phenanthren-17-yl)pentanoyl)-N-methylpiperazine-1-carboxamide]: the IC50 in assay [1] (setting [3]) is below 250 nM. For the same compound, the EC50 in assay [2] (setting [4]) was above 10000 nM.

On to `C[C@H](CCC(=O)N1CCN(C(=O)N(C)C2CC2)CC1)[C@H]1CC[C@H]2[C@@H]3CC=C4C[C@@H](O)CC[C@]4(C)[C@H]3CC[C@]12C` [Example 211, N-cyclopropyl-4-((R)-4-((3S,8S,9S,10R,13R,14S,17R)-3-hydroxy-10,13-dimethyl-2,3,4,7,8,9,10,11,12,13,14,15,16,17-tetradecahydro-1H-cyclopenta[a]phenanthren-17-yl)pentanoyl)-N-methylpiperazine-1-carboxamide], for which the IC50 in assay [1] is below 250 nM. Moreover, the EC50 in assay [2] (setting [4]) was above 10000 nM.

In assay [1] (setting [3]), `CCN(CC)C(=O)N1CCN(C(=O)CC[C@@H](C)[C@H]2CC[C@H]3[C@@H]4CC=C5C[C@@H](O)CC[C@]5(C)[C@H]4CC[C@]23C)CC1` [Example 212, N,N-diethyl-4-((R)-4-((3S,8S,9S,10R,13R,14S,17R)-3-hydroxy-10,13-dimethyl-2,3,4,7,8,9,10,11,12,13,14,15,16,17-tetradecahydro-1H-cyclopenta[a]phenanthren-17-yl)pentanoyl)piperazine-1-carboxamide] registered an IC50 below 250 nM. Also, the EC50 in assay [2] (setting [4]) was above 10000 nM.

Compound `CCN(C)C(=O)N1CCN(C(=O)CC[C@@H](C)[C@H]2CC[C@H]3[C@@H]4CC=C5C[C@@H](O)CC[C@]5(C)[C@H]4CC[C@]23C)CC1` [Example 213, N-ethyl-4-((R)-4-((3S,8S,9S,10R,13R,14S,17R)-3-hydroxy-10,13-dimethyl-2,3,4,7,8,9,10,11,12,13,14,15,16,17-tetradecahydro-1H-cyclopenta[a]phenanthren-17-yl)pentanoyl)-N-methylpiperazine-1-carboxamide] came in with a 50% inhibitory concentration (IC50) in assay [1] (setting [3]) below 250 nM. Also, the EC50 in assay [2] (setting [4]) was above 10000 nM.

On to `C[C@H](CCC(=O)N1CCC(CNC(=O)C(C)(C)O)CC1)[C@H]1CC[C@H]2[C@@H]3CC=C4C[C@@H](O)CC[C@]4(C)[C@H]3CC[C@]12C` [Example 228, 2-hydroxy-N-((1-((R)-4-((3S,8S,9S,10R,13R,14S,17R)-3-hydroxy-10,13-dimethyl-2,3,4,7,8,9,10,11,12,13,14,15,16,17-tetradecahydro-1H-cyclopenta[a]phenanthren-17-yl)pentanoyl)piperidin-4-yl)methyl)-2-methylpropanamide], for which the IC50 in assay [1] (setting [3]) is below 250 nM. The EC50 in assay [2] (setting [4]) is above 10000 nM.

In assay [1] (setting [3]), `COC(=O)N1CCN(C(=O)NC[C@@H](C)[C@H]2CC[C@H]3[C@@H]4CC=C5C[C@@H](O)CC[C@]5(C)[C@H]4CC[C@]23C)CC1` [Example 236, Methyl 4-(((S)-2-((3S,8S,9S,10R,13S,14S,17R)-3-hydroxy-10,13-dimethyl-2,3,4,7,8,9,10,11,12,13,14,15,16,17-tetradecahydro-1H-cyclopenta[a]phenanthren-17-yl)propyl)carbamoyl)piperazine-1-carboxylate] returned an IC50 below 250 nM. In addition, the EC50 in assay [2] (setting [4]) is above 10000 nM.

In turn, `CC(=N)N1CCN(C(=O)CC[C@@H](C)[C@H]2CC[C@H]3[C@@H]4CC=C5C[C@@H](O)CC[C@]5(C)[C@H]4CC[C@]23C)CC1` [Example 245, (R)-4-((3S,8S,9S,10R,13R,14S,17R)-3-hydroxy-10,13-dimethyl-2,3,4,7,8,9,10,11,12,13,14,15,16,17-tetradecahydro-1H-cyclopenta[a]phenanthren-17-yl)-1-(4-(1-iminoethyl)piperazin-1-yl)pentan-1-one] yielded an IC50 in assay [1] (setting [3]) of 250 to 1000 nM. Also, in assay [2] (setting [4]), the EC50 is above 10000 nM.

`C[C@H](CCc1ncccc1OCCO)[C@H]1CC[C@H]2[C@@H]3CC=C4C[C@@H](O)CC[C@]4(C)[C@H]3CC[C@]12C` [Example 246] gave an IC50 in assay [1] (setting [3]) below 250 nM. In addition, the EC50 in assay [2] (setting [4]) fell in the range of 250 to 1000 nM.

In the case of `CCOc1cccnc1CC[C@@H](C)[C@H]1CC[C@H]2[C@@H]3CC=C4C[C@@H](O)CC[C@]4(C)[C@H]3CC[C@]12C` [Example 247, (1R,3aS,3bS,7S,9aR,9bS,11aR)-1-[(2R)-4-(3-ethoxypyridin-2-yl)butan-2-yl]-9a,11a-dimethyl-1H,2H,3H,3aH,3bH,4H,6H,7H,8H,9H,9aH,9bH,10H,11H,11aH-cyclopenta[a]phenanthren-7-ol], the IC50 in assay [1] (setting [3]) was below 250 nM. Also, the EC50 in assay [2] (setting [4]) was 250 to 1000 nM.

Take `C[C@H](CCc1ncccc1C(C)(C)O)[C@H]1CC[C@H]2[C@@H]3CC=C4C[C@@H](O)CC[C@]4(C)[C@H]3CC[C@]12C` [Example 248, (3S,8S,9S,10R,13R,14S,17R)-17-((R)-4-(3-(2-hydroxypropan-2-yl)pyridin-2-yl)butan-2-yl)-10,13-dimethyl-2,3,4,7,8,9,10,11,12,13,14,15,16,17-tetradecahydro-1H-cyclopenta[a]phenanthren-3-ol]: the IC50 in assay [1] (setting [3]) is below 250 nM. The EC50 in assay [2] was below 250 nM.

In assay [1] (setting [3]), `CC(O)c1cccnc1CC[C@@H](C)[C@H]1CC[C@H]2[C@@H]3CC=C4C[C@@H](O)CC[C@]4(C)[C@H]3CC[C@]12C` (stereo partly drawn) [Example 249, (3S,8S,9S,10R,13R,14S,17R)-17-((2R)-4-(3-(1-hydroxyethyl)pyridin-2-yl)butan-2-yl)-10,13-dimethyl-2,3,4,7,8,9,10,11,12,13,14,15,16,17-tetradecahydro-1H-cyclopenta[a]phenanthren-3-ol] came in with an IC50 below 250 nM. Moreover, in assay [2] (setting [4]), the EC50 is below 250 nM.

As for `C[C@H](CCc1ncccc1CO)[C@H]1CC[C@H]2[C@@H]3CC=C4C[C@@H](O)CC[C@]4(C)[C@H]3CC[C@]12C` [Example 250, (3S,8S,9S,10R,13R,14S,17R)-17-((R)-4-(3-(hydroxymethyl)pyridin-2-yl)butan-2-yl)-10,13-dimethyl-2,3,4,7,8,9,10,11,12,13,14,15,16,17-tetradecahydro-1H-cyclopenta[a]phenanthren-3-ol], the IC50 in assay [1] (setting [3]) is below 250 nM. Further, in assay [2] (setting [4]), the EC50 is below 250 nM.

For the origin of these results see patent publication US20230340011A1 (Asteroid Therapeutics, priority 2022, published 2023).
